Experimental data as given in patent US8138168B1 (Takeda Pharmaceutical Company Limited, priority 2007, dated 2012).

target: T1, Recombinant human renin (Homo sapiens, UniProt P00797); assay: In vitro enzymatic activity assay of renin inhibitors (fluorogenic peptide substrate); assay type: biochemical; settings: not given
T1 construct: isolate the active form (residues 67-406); made in house; host or cells: FreeStyle 293-F cells (transient expression of pcDNA3.1(+)/hREN)
T1 sequence (P00797 67-406): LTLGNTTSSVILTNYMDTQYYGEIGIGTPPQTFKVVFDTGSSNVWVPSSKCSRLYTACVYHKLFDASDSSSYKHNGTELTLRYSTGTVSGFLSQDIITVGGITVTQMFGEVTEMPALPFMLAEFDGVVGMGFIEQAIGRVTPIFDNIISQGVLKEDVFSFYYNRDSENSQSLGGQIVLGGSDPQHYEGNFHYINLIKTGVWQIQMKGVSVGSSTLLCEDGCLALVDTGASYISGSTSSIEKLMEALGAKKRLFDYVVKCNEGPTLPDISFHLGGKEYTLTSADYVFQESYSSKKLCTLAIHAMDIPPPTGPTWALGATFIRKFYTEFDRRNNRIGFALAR
How it was run: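 Recombinant human renin (3 nM final) pre-incubated 10 min at 37 °C with compounds in pH 7.4 Hepes/EDTA/DTT/0.1 mg/mL BSA/Brij35 buffer (optionally plus 2% BSA), 5% DMSO final; fluorogenic QXL520/HiLyteFluo488 peptide substrate added.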

Row | Structure (SMILES) | IC50
1 | COCCCn1c([C@@H]2CCCN(C(=O)C[C@H](N)CNC(=O)Nc3ccccc3Cl)C2)nc2ccccc21 [Compound 257, 1-((S)-2-amino-4-((R)-3-(1-(3-methoxypropyl)-1H-benzo[d]imidazol-2-yl)piperidin-1-yl)-4-oxobutyl)-3-(2-chlorophenyl)urea] | < 100 nM

same assay, conditions: read-out: IC50 of Exemplified Compounds Against Renin

Row | Structure (SMILES) | IC50
2 | N[C@@H](CC(=O)N1CCCC(c2nc3ccccc3[nH]2)C1)c1cccc([N+](=O)[O-])c1 (stereo partly drawn) [Compound 40, (3S)-1-(3-(1H-benzo[d]imidazol-2-yl)piperidin-1-yl)-3-amino-3-(3-nitrophenyl)propan-1-one] | > 1000 nM
3 | COCCCn1c([C@@H]2CCCN(C(=O)C[C@H](N)Cc3ccc(-c4ccc(NC(=O)N(C)C)cc4)cc3)C2)nc2ccccc21 [Compound 174, 3-(4′-((R)-2-amino-4-((R)-3-(1-(3-methoxypropyl)-1H-benzo[d]imidazol-2-yl)piperidin-1-yl)-4-oxobutyl)biphenyl-4-yl)-1,1-dimethylurea] | < 100 nM
4 | COCCCn1c([C@@H]2CCCN(C(=O)C[C@H](N)Cc3ccc4ccccc4c3)C2)nc2ccc(C(C)C)cc21 [Compound 116, (R)-3-amino-1-((R)-3-(6-isopropyl-1-(3-methoxypropyl)-1H-benzo[d]imidazol-2-yl)piperidin-1-yl)-4-(naphthalen-2-yl)butan-1-one] | 100 to 1000 nM
5 | COCCCn1c([C@@H]2CCCN(C(=O)C[C@H](N)CNC(=O)c3ccc(-c4cccc([N+](=O)[O-])c4)o3)C2)nc2ccccc21 [Compound 297, N-((S)-2-amino-4-((R)-3-(1-(3-methoxypropyl)-1H-benzo[d]imidazol-2-yl)piperidin-1-yl)-4-oxobutyl)-5-(3-nitrophenyl)furan-2-carboxamide] | 100 to 1000 nM
6 | COCCCn1c([C@@H]2CCCN(C(=O)C[C@H](N)CNC(=O)Nc3cccc(OC)c3)C2)nc2ccccc21 [Compound 254, 1-((S)-2-amino-4-((R)-3-(1-(3-methoxypropyl)-1H-benzo[d]imidazol-2-yl)piperidin-1-yl)-4-oxobutyl)-3-(3-methoxyphenyl)urea] | < 100 nM
7 | COCCCn1c([C@@H]2CCCN(C(=O)[C@@H]3CN(S(=O)(=O)c4cccc(-c5ccnc(C)n5)c4)C[C@H]3N)C2)nc2ccccc21 [Compound 430, ((3R,4S)-4-amino-1-(3-(2-methylpyrimidin-4-yl)phenylsulfonyl)pyrrolidin-3-yl)((R)-3-(1-(3-methoxypropyl)-1H-benzo[d]imidazol-2-yl)piperidin-1-yl)methanone] | 100 to 1000 nM
8 | COCCCn1c([C@@H]2CCCN(C(=O)C[C@H](N)Cc3ccc(-c4ccc(C(=O)NCCOC(C)C)cc4)cc3)C2)nc2ccccc21 [Compound 179, 4′-((R)-2-amino-4-((R)-3-(1-(3-methoxypropyl)-1H-benzo[d]imidazol-2-yl)piperidin-1-yl)-4-oxobutyl)-N-(2-isopropoxyethyl)biphenyl-4-carboxamide] | < 100 nM
9 | COCCCn1c([C@@H]2CCCN(C(=O)[C@@H]3CN(C(=O)c4cccc(Cl)c4)C[C@H]3N)C2)nc2ccccc21 [Compound 375, ((3R,4S)-4-amino-1-(3-chlorobenzoyl)pyrrolidin-3-yl)((R)-3-(1-(3-methoxypropyl)-1H-benzo[d]imidazol-2-yl)piperidin-1-yl)methanone] | 100 to 1000 nM
10 | COCCCn1c([C@@H]2CCCN(C(=O)CC(O)Cc3ccc(-c4ccccc4)cc3)C2)nc2ccccc21 (stereo in doubt) [Compound 73, (R)-4-(Biphenyl-4-yl)-3-hydroxy-1-(3-(1-(3-methoxypropyl)-1H-benzo[d]imidazol-2-yl)piperidin-1-yl)butan-1-one] | 100 to 1000 nM
11 | N[C@H]1CCC[C@@H]1C(=O)N1CCCC(c2nc3ccccc3[nH]2)C1 (stereo partly drawn) [Compound 57, (3-(1H-benzo[d]imidazol-2-yl)piperidin-1-yl)((1S,2S)-2-aminocyclopentyl)methanone] | > 1000 nM
12 | COCCCn1c([C@@H]2CCCN(C(=O)C[C@H](N)CNC(=O)Nc3ccccc3OC)C2)nc2ccccc21 [Compound 250, 1-((S)-2-amino-4-((R)-3-(1-(3-methoxypropyl)-1H-benzo[d]imidazol-2-yl)piperidin-1-yl)-4-oxobutyl)-3-(2-methoxyphenyl)urea] | < 100 nM
13 | COCCCn1c([C@@H]2CCCN(C(=O)C[C@H](N)CNC(=O)c3ccc(Cl)c(Cl)c3)C2)nc2ccccc21 [Compound 262, N-((S)-2-amino-4-((R)-3-(1-(3-methoxypropyl)-1H-benzo[d]imidazol-2-yl)piperidin-1-yl)-4-oxobutyl)-3,4-dichlorobenzamide] | 100 to 1000 nM
14 | NC1(C(=O)N2CCCC(c3nc4ccccc4[nH]3)C2)CCC1 (stereo not shown) [Compound 59, (3-(1H-benzo[d]imidazol-2-yl)piperidin-1-yl)(1-aminocyclobutyl)methanone] | > 1000 nM
15 | COCCCn1c(C2CCCN(C(=O)C[C@H](N)Cc3ccc(Cl)cc3)C2)nc2ccccc21 (stereo partly drawn) [Compound 24, (3R)-3-amino-4-(4-chlorophenyl)-1-(3-(1-(3-methoxypropyl)-1H-benzo[d]imidazol-2-yl)piperidin-1-yl)butan-1-one] | 100 to 1000 nM
16 | CC[C@H](C)[C@H](N)C(=O)N1CCCC(c2nc3ccccc3[nH]2)C1 (stereo partly drawn) [Compound 48, (2S,3S)-1-(3-(1H-benzo[d]imidazol-2-yl)piperidin-1-yl)-2-amino-3-methylpentan-1-one] | > 1000 nM
17 | COCCCn1c([C@@H]2CCCN(C(=O)C[C@H](N)Cc3ccc(-c4ccc5c(c4)SCC(=O)N5)cc3)C2)nc2c(F)cccc21 [Compound 442, 7-(4-((R)-2-amino-4-((R)-3-(4-fluoro-1-(3-methoxypropyl)-1H-benzo[d]imidazol-2-yl)piperidin-1-yl)-4-oxobutyl)phenyl)-2H-benzo[b][1,4]thiazin-3(4H)-one] | < 100 nM
18 | CC(=O)NCCn1c([C@@H]2CCCN(C(=O)C[C@H](N)Cc3ccc(-c4ccnc(O)c4)cc3)C2)nc2ccccc21 [Compound 461, N-(2-(2-((R)-1-((R)-3-amino-4-(4-(2-hydroxypyridin-4-yl)phenyl)butanoyl)piperidin-3-yl)-1H-benzo[d]imidazol-1-yl)ethyl)acetamide] | 100 to 1000 nM
19 | N[C@@H](CC(=O)N1CCCC(c2nc3ccccc3[nH]2)C1)Cc1ccc2ccccc2c1 (stereo partly drawn) [Compound 44, (3R)-1-(3-(1H-benzo[d]imidazol-2-yl)piperidin-1-yl)-3-amino-4-(naphthalen-2-yl)butan-1-one] | > 1000 nM
20 | COCCCn1c([C@@H]2CCCN(C(=O)[C@@H]3CN(C(=O)C4CCCC4)C[C@H]3N)C2)nc2ccccc21 [Compound 395, ((3R,4S)-4-amino-1-(cyclopentanecarbonyl)pyrrolidin-3-yl)((R)-3-(1-(3-methoxypropyl)-1H-benzo[d]imidazol-2-yl)piperidin-1-yl)methanone] | > 1000 nM
21 | COCCCn1c([C@@H]2CCCN(C(=O)C[C@H](N)CNS(=O)(=O)c3ccccc3Cl)C2)nc2ccccc21 [Compound 306, N-((S)-2-amino-4-((R)-3-(1-(3-methoxypropyl)-1H-benzo[d]imidazol-2-yl)piperidin-1-yl)-4-oxobutyl)-2-chlorobenzenesulfonamide] | 100 to 1000 nM
22 | COCCCn1c([C@@H]2CCCN(C(=O)[C@@H]3CN(c4cccc(C#N)c4)C[C@H]3N)C2)nc2ccccc21 [Compound 507] | 100 to 1000 nM
